Laboratory results published in ChEMBL document CHEMBL4396872, “Pharmacokinetics-Driven Optimization of 4(3 H)-Pyrimidinones as Phosphodiesterase Type 5 Inhibitors Leading to TPN171, a Clinical Candidate for the Treatment of Pulmonary Arterial Hypertension” (J Med Chem, 2019).
One block for each molecule: values may come before it. Activity calls are given as the source filed them. No cut-off for these calls is given here.

What was measured:
Homo sapiens = species: Homo sapiens; assay: Selectivity ratio of IC50 for N-terminal GST-tagged human PDE6C to IC50 for N-terminal GST-tagged human PDE5A1
[1] = target: T1, cGMP-specific 3',5'-cyclic phosphodiesterase (Homo sapiens, UniProt O76074); assay: Inhibition of N-terminal GST-tagged human PDE5A1 expressed in baculovirus infected sf9 cells using [3H]cGMP as substrate measured after 30 mins by scintillation proximity assay
Rattus norvegicus [2] = assay: Antihypertensive activity in spontaneously hypertensive rat assessed as reduction in mean arterial pressure at 20 mg/kg administered via single gavage measured up to 24 hrs; type: functional, organism-based
[3] = Metabolic stability in human liver microsomes assessed as parent compound remaining at 1 uM in presence of NADPH after 30 mins by LC-MS/MS analysis; type: ADME, Microsome; conditions: read-out: Stability
Rattus norvegicus [4] = assay: […] activity in MCT-induced pulmonary arterial hypertension Sprague-Dawley rat model assessed as reduction in mean pulmonary artery pressure at 100 mg/kg administered once daily for 21 days starting from 21 days post-MCT challenge by right cardiac catheter method; type: functional, organism-based
[5] = Cmax in Beagle dog at 0.5 mg/kg, po measured up to 24 hrs by LC-MS/MS analysis; type: ADME, organism-based, Canis lupus familiaris; design: dose 0.5 mg/kg, route oral; conditions: in vivo
[6] = Terminal half life in human at 5 mg, po administered once daily measured under phase 1 clinical trials; type: ADME, organism-based; conditions: in vivo, read-out: beta t1/2 (converted)
[7] = target: T1, cGMP-specific 3',5'-cyclic phosphodiesterase
[8] = AUC (0 to t) in Sprague-Dawley rat at 1 mg/kg, iv measured up to 24 hrs by LC-MS/MS analysis; type: ADME, organism-based; design: time < 24 hr, dose 1 mg/kg, route intravenous; conditions: in vivo
[9] = Half-life in Beagle dog at 0.5 mg/kg, po measured up to 24 hrs by LC-MS/MS analysis; type: ADME, organism-based, Canis lupus familiaris; conditions: in vivo
[10] = target: T1, cGMP-specific 3',5'-cyclic phosphodiesterase; remark: listed apart in the source
[11] = AUC (0 to t) in Beagle dog at 0.5 mg/kg, iv measured up to 24 hrs by LC-MS/MS analysis; type: ADME, organism-based, Canis lupus familiaris; design: time < 24 hr, dose 0.5 mg/kg, route intravenous; conditions: in vivo
[12] = AUC (0 to t) in Sprague-Dawley rat at 1 mg/kg, po measured up to 24 hrs by LC-MS/MS analysis; type: ADME, organism-based; design: time < 24 hr, dose 1 mg/kg, route oral; conditions: in vivo
[13] = target: Cone cGMP-specific 3',5'-cyclic phosphodiesterase subunit alpha' (Homo sapiens, UniProt P51160); assay: Inhibition of N-terminal GST-tagged human PDE6C expressed in baculovirus infected sf9 cells using [3H]cGMP as substrate measured after 30 mins by scintillation proximity assay
[14] = AUC (0 to t) in Beagle dog at 0.5 mg/kg, po measured up to 24 hrs by LC-MS/MS analysis; type: ADME, organism-based, Canis lupus familiaris; design: time < 24 hr, dose 0.5 mg/kg, route oral; conditions: in vivo
[15] = Oral bioavailability Beagle dog at 0.5 mg/kg measured up to 24 hrs by LC-MS/MS analysis; type: ADME, organism-based, Canis lupus familiaris; conditions: in vivo
[16] = Clearance in Beagle dog at 0.5 mg/kg, iv measured up to 24 hrs by LC-MS/MS analysis; type: ADME, organism-based, Canis lupus familiaris; conditions: in vivo
[17] = target: Dual 3',5'-cyclic-AMP and -GMP phosphodiesterase 11A (Homo sapiens, UniProt Q9HCR9); assay: Inhibition of N-terminal GST-tagged human PDE11A4 expressed in baculovirus infected sf9 cells using [3H]cGMP as substrate measured after 30 mins by scintillation proximity assay
[18] = Volume of distribution at steady state in Sprague-Dawley rat at 1 mg/kg, iv measured up to 24 hrs by LC-MS/MS analysis; type: ADME, organism-based; conditions: in vivo, read-out: Vdss
[19] = Half-life in Sprague-Dawley rat at 1 mg/kg, iv measured up to 24 hrs by LC-MS/MS analysis; type: ADME, organism-based; conditions: in vivo
[20] = Volume of distribution at steady state in Beagle dog at 0.5 mg/kg, iv measured up to 24 hrs by LC-MS/MS analysis; type: ADME, organism-based, Canis lupus familiaris; conditions: in vivo, read-out: Vdss
[21] = Half-life in Sprague-Dawley rat at 1 mg/kg, po measured up to 24 hrs by LC-MS/MS analysis; type: ADME, organism-based; conditions: in vivo
Phosphodiesterase 1 = Phosphodiesterase 1 (Homo sapiens, UniProt P54750+Q01064+Q14123); assay: Inhibition of N-terminal GST-tagged human PDE1 expressed in baculovirus infected sf9 cells using [3H]cAMP as substrate measured after 30 mins by scintillation proximity assay
Rattus norvegicus [22] = assay: Antihypertensive activity in spontaneously hypertensive rat assessed as reduction in mean arterial pressure at 20 mg/kg administered via single gavage and measured at 2 hrs; type: functional, organism-based
Rattus norvegicus [23] = assay: […] activity in MCT-induced pulmonary arterial hypertension Sprague-Dawley rat model assessed as reduction in mean pulmonary artery pressure at 1 mg/kg administered once daily for 21 days starting from 21 days post-MCT challenge by right cardiac catheter method; type: functional, organism-based
Rattus norvegicus [24] = assay: Antihypertensive activity in spontaneously hypertensive rat assessed as reduction in mean arterial pressure at 20 mg/kg administered via single gavage and measured at 4 hrs; type: functional, organism-based
[25] = Clearance in Sprague-Dawley rat at 1 mg/kg, iv measured up to 24 hrs by LC-MS/MS analysis; type: ADME, organism-based; conditions: in vivo
[26] = MRT in Beagle dog at 0.5 mg/kg, po measured up to 24 hrs by LC-MS/MS analysis; type: ADME, organism-based, Canis lupus familiaris; conditions: in vivo
[27] = AUC (0 to infinity) in Sprague-Dawley rat at 1 mg/kg, po measured up to 24 hrs by LC-MS/MS analysis; type: ADME, organism-based; design: dose 1 mg/kg, route oral, time infinity; conditions: in vivo
[28] = AUC (0 to infinity) in Beagle dog at 0.5 mg/kg, iv measured up to 24 hrs by LC-MS/MS analysis; type: ADME, organism-based, Canis lupus familiaris; design: dose 0.5 mg/kg, time infinity, route intravenous; conditions: in vivo
[29] = Cmax in Sprague-Dawley rat at 1 mg/kg, po measured up to 24 hrs by LC-MS/MS analysis; type: ADME, organism-based; design: dose 1 mg/kg, route oral; conditions: in vivo
Rattus norvegicus [30] = assay: […] activity in MCT-induced pulmonary arterial hypertension Sprague-Dawley rat model assessed as reduction in mean pulmonary artery pressure at 25 mg/kg administered once daily for 21 days starting from 21 days post-MCT challenge by right cardiac catheter method; type: functional, organism-based
[31] = AUC (0 to infinity) in Beagle dog at 0.5 mg/kg, po measured up to 24 hrs by LC-MS/MS analysis; type: ADME, organism-based, Canis lupus familiaris; design: dose 0.5 mg/kg, time infinity, route oral; conditions: in vivo
[32] = target: T1, cGMP-specific 3',5'-cyclic phosphodiesterase; remark: listed apart in the source
[33] = AUC (0 to infinity) in Sprague-Dawley rat at 1 mg/kg, iv measured up to 24 hrs by LC-MS/MS analysis; type: ADME, organism-based; design: dose 1 mg/kg, time infinity, route intravenous; conditions: in vivo
[34] = MRT in Beagle dog at 0.5 mg/kg, iv measured up to 24 hrs by LC-MS/MS analysis; type: ADME, organism-based, Canis lupus familiaris; conditions: in vivo
[35] = Half-life in Beagle dog at 0.5 mg/kg, iv measured up to 24 hrs by LC-MS/MS analysis; type: ADME, organism-based, Canis lupus familiaris; conditions: in vivo
[36] = Tmax in Beagle dog at 0.5 mg/kg, po measured up to 24 hrs by LC-MS/MS analysis; type: ADME, organism-based, Canis lupus familiaris; conditions: in vivo
[37] = Tmax in Sprague-Dawley rat at 1 mg/kg, po measured up to 24 hrs by LC-MS/MS analysis; type: ADME, organism-based; conditions: in vivo
[38] = MRT in Sprague-Dawley rat at 1 mg/kg, iv measured up to 24 hrs by LC-MS/MS analysis; type: ADME, organism-based; conditions: in vivo
[39] = MRT in Sprague-Dawley rat at 1 mg/kg, po measured up to 24 hrs by LC-MS/MS analysis; type: ADME, organism-based; conditions: in vivo
[40] = Oral bioavailability in Sprague-Dawley rat at 1 mg/kg measured up to 24 hrs by LC-MS/MS analysis; type: ADME, organism-based; conditions: in vivo
[41] = Tmax in Sprague-Dawley rat at 1 mg/kg, po measured up to 24 hrs by HPLC analysis; type: ADME, organism-based; conditions: in vivo
[42] = Half-life in Sprague-Dawley rat at 4 mg/kg, iv measured up to 24 hrs by HPLC analysis; type: ADME, organism-based; conditions: in vivo
[43] = Half-life in Sprague-Dawley rat at 1 mg/kg, po measured up to 24 hrs by HPLC analysis; type: ADME, organism-based; conditions: in vivo
[44] = Oral bioavailability in Sprague-Dawley rat at 1 mg/kg measured up to 24 hrs by HPLC analysis; type: ADME, organism-based; conditions: in vivo
[45] = Volume of distribution at steady state in Sprague-Dawley rat at 4 mg/kg, iv measured up to 24 hrs by HPLC analysis; type: ADME, organism-based; conditions: in vivo, read-out: Vdss
[46] = Clearance in Sprague-Dawley rat at 4 mg/kg, iv measured up to 24 hrs by HPLC analysis; type: ADME, organism-based; conditions: in vivo
[47] = Cmax in Sprague-Dawley rat at 1 mg/kg, po measured up to 24 hrs by HPLC analysis; type: ADME, organism-based; design: dose 1 mg/kg, route oral; conditions: in vivo
Rattus norvegicus [48] = assay: Antihypertensive activity in spontaneously hypertensive rat assessed as reduction in mean arterial pressure at 20 mg/kg administered via single gavage after 6 hrs; type: functional, organism-based

Chain of Cone cGMP-specific 3',5'-cyclic phosphodiesterase subunit alpha' (P51160 whole entry): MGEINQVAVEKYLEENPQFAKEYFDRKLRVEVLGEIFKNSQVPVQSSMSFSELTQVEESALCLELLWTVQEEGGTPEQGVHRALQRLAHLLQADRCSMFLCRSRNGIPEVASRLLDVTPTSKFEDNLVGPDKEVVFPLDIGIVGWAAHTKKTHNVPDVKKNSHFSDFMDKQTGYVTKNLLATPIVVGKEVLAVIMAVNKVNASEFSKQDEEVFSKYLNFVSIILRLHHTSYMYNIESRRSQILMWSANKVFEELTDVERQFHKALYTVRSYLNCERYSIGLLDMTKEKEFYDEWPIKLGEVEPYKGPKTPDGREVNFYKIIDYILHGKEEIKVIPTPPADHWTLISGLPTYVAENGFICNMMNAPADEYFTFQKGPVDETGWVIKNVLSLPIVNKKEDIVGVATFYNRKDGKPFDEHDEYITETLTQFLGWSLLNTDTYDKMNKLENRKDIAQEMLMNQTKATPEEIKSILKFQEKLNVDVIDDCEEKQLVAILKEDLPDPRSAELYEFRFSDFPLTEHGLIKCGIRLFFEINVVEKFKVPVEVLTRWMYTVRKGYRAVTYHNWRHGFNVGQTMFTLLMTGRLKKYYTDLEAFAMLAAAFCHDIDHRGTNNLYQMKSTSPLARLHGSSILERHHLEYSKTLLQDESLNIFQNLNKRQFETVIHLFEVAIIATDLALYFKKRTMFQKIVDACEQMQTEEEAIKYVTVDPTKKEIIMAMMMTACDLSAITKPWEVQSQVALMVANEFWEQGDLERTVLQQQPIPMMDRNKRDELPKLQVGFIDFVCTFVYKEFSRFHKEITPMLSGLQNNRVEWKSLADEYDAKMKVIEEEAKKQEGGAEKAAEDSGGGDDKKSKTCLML
Chain of Dual 3',5'-cyclic-AMP and -GMP phosphodiesterase 11A (Q9HCR9 whole entry): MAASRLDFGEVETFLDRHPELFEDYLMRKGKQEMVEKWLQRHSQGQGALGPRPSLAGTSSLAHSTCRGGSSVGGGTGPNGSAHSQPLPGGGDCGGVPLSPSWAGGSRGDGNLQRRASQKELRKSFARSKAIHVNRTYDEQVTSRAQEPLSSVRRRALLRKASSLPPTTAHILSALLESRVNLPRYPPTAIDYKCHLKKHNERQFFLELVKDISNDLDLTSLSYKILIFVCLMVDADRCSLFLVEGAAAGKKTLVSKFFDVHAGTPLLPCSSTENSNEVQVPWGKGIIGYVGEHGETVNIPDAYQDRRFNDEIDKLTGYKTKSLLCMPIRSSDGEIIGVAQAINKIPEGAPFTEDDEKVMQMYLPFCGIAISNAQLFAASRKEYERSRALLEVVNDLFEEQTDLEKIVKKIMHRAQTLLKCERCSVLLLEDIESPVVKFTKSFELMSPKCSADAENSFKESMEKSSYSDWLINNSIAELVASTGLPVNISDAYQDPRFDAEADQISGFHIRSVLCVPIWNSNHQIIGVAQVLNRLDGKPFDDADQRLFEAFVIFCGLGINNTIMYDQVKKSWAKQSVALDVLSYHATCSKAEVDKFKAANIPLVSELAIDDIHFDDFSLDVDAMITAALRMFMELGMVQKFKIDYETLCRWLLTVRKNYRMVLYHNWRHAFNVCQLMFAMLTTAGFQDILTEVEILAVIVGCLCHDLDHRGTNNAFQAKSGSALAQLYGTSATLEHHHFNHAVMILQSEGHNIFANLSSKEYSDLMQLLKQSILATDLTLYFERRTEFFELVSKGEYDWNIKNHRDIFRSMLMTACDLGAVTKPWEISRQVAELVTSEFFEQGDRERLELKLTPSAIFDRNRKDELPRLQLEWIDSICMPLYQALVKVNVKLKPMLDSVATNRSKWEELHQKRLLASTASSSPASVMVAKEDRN

- Ratio IC50 (Homo sapiens): 22
Structure (SMILES): CCCOc1ccc(NC(=O)C(N)=O)cc1-c1nc(CC)c(CC)c(=O)[nH]1

- Ratio IC50 (Homo sapiens): 11
Structure (SMILES): CCCOc1ccc(NC(=O)CC)cc1-c1nc(CC)c(CC)c(=O)[nH]1

- IC50 [1]: 1.69 nM
- remaining at 0.5 h, 1 µM [3]: 100%
- Ratio IC50 (Homo sapiens): 86
Structure (SMILES): CCCOc1ccc(S(=O)(=O)NCCC(=O)O)cc1-c1nc(CC)c(CC)c(=O)[nH]1
- Activity (Rattus norvegicus [2]): inactive

- IC50 [1]: 5.33 nM
- Ratio IC50 (Homo sapiens): 10
Structure (SMILES): CCCOc1ccc(N)cc1-c1nc(CC)c(CC)c(=O)[nH]1

- IC50 [1]: 2.02 nM
- Ratio IC50 (Homo sapiens): 20
Structure (SMILES): CCCOc1ccc(S(=O)(=O)N2CCC[C@H]2C(=O)O)cc1-c1nc(CC)c(CC)c(=O)[nH]1

Further lines, the molecule ahead of its results:

Structure (SMILES): CCCOc1ccc(NC(=O)[C@@H]2CCCN2C(C)=O)cc1-c1nc(CC)c(CC)c(=O)[nH]1
- IC50 [1]: 0.54 nM
- Ratio IC50 (Homo sapiens): 10

Structure (SMILES): CCCOc1ccc(NC(=O)CN2CCN(C)CC2)cc1-c1nc(CC)c(CC)c(=O)[nH]1
- Activity (Rattus norvegicus [4]): Active
- Cmax [5]: 66.5 ng/mL
- half-life [6]: 10.9 h
- deltaG [7]: -9.81 kcal/mol
- AUCt [8]: 403 ng·h/mL
- half-life [9]: 4.89 h
- deltaH [10]: -21.5 kcal/mol
- AUCt [11]: 752 ng·h/mL
- AUCt [12]: 268 ng·h/mL
- IC50 [13]: 19.8 nM
- AUCt [14]: 495 ng·h/mL
- bioavailability [15]: 67%
- clearance [16]: 10.8 mL/min/kg
- IC50 [17]: 998 nM
- Activity (Rattus norvegicus [2]): Active
- Vd [18]: 4.97 L/kg
- half-life [19]: 2.4 h
- Vd [20]: 3.83 L/kg
- half-life [21]: 2.82 h
- remaining at 0.5 h, 1 µM [3]: 91%
- IC50 (Phosphodiesterase 1): 3640 nM
- Activity (Rattus norvegicus [22]): Active
- Activity (Rattus norvegicus [23]): Active
- Activity (Rattus norvegicus [24]): Active
- clearance [25]: 37.7 mL/min/kg
- MRT [26]: 7.21 h
- AUC [27]: 284 ng·h/mL
- AUC [28]: 773 ng·h/mL
- Cmax [29]: 43.9 ng/mL
- Activity (Rattus norvegicus [30]): Active
- AUC [31]: 514 ng·h/mL
- -TdeltaS [32]: 11.7 kcal/mol
- AUC [33]: 412 ng·h/mL
- MRT [34]: 6.07 h
- half-life [35]: 4.5 h
- Tmax [36]: 1.9 h
- Tmax [37]: 2.8 h
- MRT [38]: 2.22 h
- MRT [39]: 5.56 h
- bioavailability [40]: 66.4%

Structure (SMILES): CCCOc1ccc(S(=O)(=O)N(CCO)CCN2CCOCC2)cc1-c1nc(CC)c(CC)c(=O)[nH]1
- Ratio IC50 (Homo sapiens): 10

Structure (SMILES): CCCc1nn(C)c2c(=O)[nH]c(-c3cc(S(=O)(=O)N4CCN(C)CC4)ccc3OCC)nc12
- Activity (Rattus norvegicus [4]): Active
- Tmax [41]: 1.6 h
- half-life [42]: 1.1 h
- half-life [43]: 0.65 h
- Activity (Rattus norvegicus [22]): Active
- Activity (Rattus norvegicus [23]): Active
- Activity (Rattus norvegicus [24]): inactive
- Activity (Rattus norvegicus [30]): Active
- bioavailability [44]: 34%
- Vd [45]: 1.6 L/kg
- clearance [46]: 30.5 mL/min/kg
- Cmax [47]: 76 ng/mL
- Activity (Rattus norvegicus [48]): inactive
